Experimental findings from patent publication US20240173302A1, “TREATMENT OF INFLAMMATORY DISEASES” (DIMERIX BIOSCIENCE PTY LTD, priority 2021, published 2024) are described below.

In experiment [1] the test system is CCR2 in the presence of unlabelled ETAR. The experiment is described as follows: Receptor-HIT BRET β-arrestin recruitment assay, CCR2/Rluc8+Barr2/Venus+HA-ETAR. In kind it is cell-based, human. The settings on record: HEK293FT cells. (In general: Bioluminescence resonance energy transfer reports proximity on the nanometre scale.)
The next experiment addresses T1, ETAR and CCR2 heteromer (Homo sapiens, UniProt P25101+P41597).
T1 construct: expressed in transfected cells; host or cells: HEK293FT
The experiment is described as follows: Receptor-HIT BRET β-arrestin recruitment assay, ETAR/Rluc8+Barr2/Venus+CCR2. The settings on record: HEK293FT cells; for hyperactivation of β-arrestin recruitment to ETAR (ligand-induced BRET): both CCL2/MCP-1 and ET-1 present; for agonist-induced β-arrestin recruitment to ETAR (ligand-induced BRET): no antagonist. In kind it is cell-based. As to the method: HEK293FT cells were seeded in 6-well plates at a density of approximately 700,000 cells/well and maintained at 37° C., 5% CO2 in Complete Media (DMEM containing 0.3 mg/ml glutamine, 100 IU/ml penicillin and 100 μg/ml streptomycin (Thermo Fisher)) supplemented with 10% fetal calf serum (FCS; Bovogen). Transient transfections were carried out 24 h after seeding using FuGene6 (Promega) according to manufacturer instructions. 24 h post-transfection, cells were washed with PBS, detached using 0.05% trypsin/0.53 mM EDTA, resuspended in phenol red free Complete Media containing 5% FCS and added to a poly-L-lysine-coated white 96-well microplate (Greiner Bio-One). 48 h post-transfection, bioluminescence resonance energy transfer (BRET) assays were carried out following pre-incubation of cells with EnduRen™ (Promega) at a final concentration of 30 μM, at 37° ° C., 5% CO2 for 2 h. BRET measurements were taken at 37° C. using the CLARIOstar (BMG Labtech). Filtered light emissions were sequentially measured for 1 s in each of the ‘donor wavelength window’ (410-490 nm) and ‘acceptor wavelength window’ (520-620 nm).
For antagonist assays, cells were pre-incubated in EnduRen for 2 h. The antagonists (10 μM) were added and the assay was read for 30 min. Subsequently, the agonists (CXCL8 10 nM, AngII 100 nM) were added and the measurements continued for another 1 h.
The BRET signal observed between interacting proteins is normalized by subtracting the background BRET ratio. This can be done in one of two ways (see Pfleger et al. (2006) Cell Signal 18:1664-1670; Pfleger et al. (2006) Nat Protoc 1:336-344): 1) the ratio of the 520-550 nm emission over the 460-490 nm emission for a cell sample containing only the donor construct is subtracted from the same ratio for a sample containing the interacting acceptor and donor fusion proteins; 2) the ratio of the 520-550 nm emission over the 460-490 nm emission for a cell sample treated with vehicle is subtracted from the same ratio for a second aliquot of the same cell sample treated with ligand. In the following examples, the second calculation will be used and the signal is described as ‘ligand-induced BRET’.
The Receptor-Heteromer Investigation Technology (Receptor-HIT) is an assay configuration that provides insights into receptor complexes (Ayoub et al. (2015) PLOS One 10(3):e0119803). It is also known as GPCR-HIT when assessing GPCRs. It is an assay configuration whereby one receptor (eg. CCR2) is labelled with one component (eg. Renilla luciferase variant Rluc8) of a proximity-based reporter system (eg. BRET), the complementary component of which (eg. yellow fluorescent protein Venus) is fused to a receptor interacting partner (eg. β-arrestin 2). Treatment with a ligand (eg. AngII) selective for the receptor untagged with respect to the BRET assay (eg. hemagglutinin epitope-tagged AT1R; HA-AT1R) results in modulation of the proximity of the BRET-tagged receptor and the interacting partner, resulting in a change in BRET signal that is indicative of functional interaction between the two receptors.

“Also recorded” adds a separate entry of the source.

T1 sequence (P25101 21-427): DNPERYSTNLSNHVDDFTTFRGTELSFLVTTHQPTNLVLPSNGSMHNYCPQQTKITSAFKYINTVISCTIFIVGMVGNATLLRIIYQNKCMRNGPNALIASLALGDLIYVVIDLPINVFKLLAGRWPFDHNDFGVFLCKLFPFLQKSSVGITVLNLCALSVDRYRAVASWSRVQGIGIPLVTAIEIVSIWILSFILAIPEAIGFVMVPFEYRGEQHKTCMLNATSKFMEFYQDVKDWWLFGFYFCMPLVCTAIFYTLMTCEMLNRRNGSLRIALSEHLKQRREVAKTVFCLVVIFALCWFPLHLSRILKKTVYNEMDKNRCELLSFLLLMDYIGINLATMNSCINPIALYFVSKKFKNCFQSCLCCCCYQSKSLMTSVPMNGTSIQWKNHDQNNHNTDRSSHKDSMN
T1 sequence (P41597 whole entry): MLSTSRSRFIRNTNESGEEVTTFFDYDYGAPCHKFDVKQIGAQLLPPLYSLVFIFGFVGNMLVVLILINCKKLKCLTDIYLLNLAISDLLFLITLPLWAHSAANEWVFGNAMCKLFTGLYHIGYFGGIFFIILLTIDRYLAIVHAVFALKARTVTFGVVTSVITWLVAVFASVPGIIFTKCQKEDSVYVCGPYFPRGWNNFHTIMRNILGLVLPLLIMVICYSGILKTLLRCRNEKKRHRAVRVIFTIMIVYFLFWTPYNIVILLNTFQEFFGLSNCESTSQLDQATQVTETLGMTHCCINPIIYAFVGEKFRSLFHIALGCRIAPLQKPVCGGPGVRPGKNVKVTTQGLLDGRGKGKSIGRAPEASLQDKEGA

On to `CCCCC1=NC2(CCCC2)C(=O)N1Cc1ccc(-c2ccccc2S(=O)(=O)Nc2noc(C)c2C)c(COCC)c1` [Sparsentan, 2-[4-[(2-butyl-4-oxo-1,3-diazaspiro[4.4]non-1-en-3-yl)methyl]-2-(ethoxymethyl)phenyl]-N-(4,5-dimethyl-1,2-oxazol-3-yl)benzenesulfonamide], for which the “increased recruitment of β-arrestin to CCR2 (ligand-induced BRET)” value in experiment [1] (CCL2/MCP-1 and ET-1 present, antagonists 10 μM) is listed as “increased recruitment of β-arrestin is not observed”. Besides, the “β-arrestin recruitment to ETAR stimulated with ET-1 (ligand-induced BRET)” value at ETAR and CCR2 heteromer (ET-1 alone, antagonists 10 μM) is reported as “inhibits this signalling independent of CCR2 activation”. In addition, the “hyperactivation of β-arrestin recruitment to ETAR (ligand-induced BRET)” value at ETAR and CCR2 heteromer (antagonists 10 μM) was “abrogate the hyperactivation when both CCL2/CMP-1 and ET-1 ligands are present but not cease recruitment of β-arrestin to ETAR”; on ETAR and CCR2 heteromer (antagonists 10 μM, listed as sparsentan) it was “abrogated”.

For endothelin-1 [ET-1], the “agonist-induced β-arrestin recruitment to ETAR (ligand-induced BRET)” value at ETAR and CCR2 heteromer is recorded as “β-arrestin is recruited to ETAR; also recorded: recruit β-arrestin at a low magnitude”.

On to “monocyte chemoattractant protein-1 [CCL2/MCP-1]”, for which the “agonist-induced β-arrestin recruitment to CCR2 (ligand-induced BRET)” value in experiment [1] (no antagonist) is reported as “β-arrestin is recruited to CCR2”. Further, the “agonist-induced β-arrestin recruitment to ETAR (ligand-induced BRET)” value with ETAR and CCR2 heteromer is given as “β-arrestin is recruited to ETAR”; with ETAR and CCR2 heteromer (listed as CCL2), “β-arrestin recruitment to ETAR occurs”; in the experiment with ETAR and CCR2 heteromer (listed as CCL2/MCP1) it was “β-arrestin is recruited to ETAR”.
